# Source: paper PMC10587126, “Molecular hybridization strategy for tuning bioactive peptide function” (Communications Biology, 2023)
# No end group written: not given here.
# Legend:
# human erythrocytes = assay: Hemolytic activity; type: cell-based; conditions: 0.1–100 μmol L^−1 in PBS, room temperature, 1 h, absorbance 405 nm
# Protocol: Assays against freshly collected human erythrocytes were performed following protocols described by Pedron et al.[54]. Briefly, peptide aliquots at concentrations ranging from 0.1 to 100 μmol L^−1 were incubated with a suspension of erythrocytes at room temperature for 1 h. The samples were then centrifuged, and the absorbance of the supernatant was measured at 405 nm. […] The surfactant SDS and PBS buffer were used as positive[81],[82] and negative controls, respectively. Sodium heparin was used as an anticoagulant when collecting human blood. Three biological repeats were performed. All experiments were performed in accordance with the protocol CEUA/IB #I-1345/15 approved by the Instituto Butantan.
# [1] = test system: Pseudomonas aeruginosa PAO1; assay: Broth microdilution MIC, ESKAPE pathogens; type: cell-based; conditions: strain not given (PAO1 and PA14 tested), LB, 37 °C, 24 h
# Protocol: Peptides were tested in antimicrobial assays against Serratia marcescens ATCC 4112, Enterobacter cloacae β-12, Micrococcus luteus A270, Bacillus megaterium ATCC 10778, Bacillus subtilis ATCC 6633, Candida albicans MDM8, Candida tropicalis IOC 4560, Acinetobacter baumannii ATCC 19606, Escherichia coli ATCC 11775, Escherichia coli AIC221, Escherichia coli AIC222, Klebsiella pneumoniae ATCC 13883, Staphylococcus aureus ATCC 12600, Pseudomonas aeruginosa PAO1, and Pseudomonas aeruginosa PA14. All microorganisms were obtained from the American Type Culture Collection (ATCC), Instituto Butantan, São Paulo, Brazil, and the clinical isolate strains were donated from the Oswaldo Cruz Institute Collection (IOC), Rio de Janeiro, Brazil.
# The minimal inhibitory concentration (MIC) against the ESKAPE pathogens was determined using the broth microdilution method[7] in Luria-Bertani (LB) medium. The MIC value was defined as the lowest concentration of peptide at which no microbial growth was observed. A. baumannii ATCC 19606, E. coli ATCC 11775, E. coli AIC221, E. coli AIC222, K. pneumoniae ATCC 13883, S. aureus ATCC 12600 P. aeruginosa PAO1, and P. aeruginosa PA14 were incubated on agar plates, and after 24 h, three isolated colonies were inoculated to 5 mL of Luria-Bertani (LB) broth and maintained at 37 °C overnight with shaking. Peptides were then added to 96-well polystyrene microtiter plates at concentrations ranging from 0 to 128 μmol L^−1, and 5 × 10^5 CFU mL^−1 of each bacterium was inoculated in each well. The plates were incubated at 37 °C for 24 h. Bacterial growth was measured using a microplate reader at 610 nm. Three independent replicates were performed.
# [2] = Resistance to proteolytic degradation in fetal bovine serum; type: in vitro ADME; conditions: 25% fetal bovine serum in water, 37 °C; for Peptide remaining after 30 min: LC peak area vs time 0, 30 min, three replicates
# Protocol: Stability assays were performed following the protocol described by Torres et al.[67]. Briefly, a peptide solution was added to GIBCO fetal bovine serum diluted to 25% in water and kept at 37 °C. The degradation kinetics were monitored by liquid chromatography and the percentage of peptide remaining in each case was calculated by integrating the peptide peak area. These experiments were performed as three independent replicates, and aliquots were taken at 0, 0.5, 1, 2, 4, and 6 h.
# [3] = Mouse body weight in the skin abscess infection model; type: in vivo
# Protocol: The anti-infective activity of the peptides VmCT1, temporin A, VT, and TV against A. baumannii ATCC 19606 was evaluated as described by Torres et al.[7],[83] Bacteria were grown in tryptic soy broth medium to an optical density of 0.5 at 600 nm. Cells were washed twice with sterile phosphate-buffered saline (pH 7.4, 13,000 rpm for 1 min) and resuspended to a final concentration of 1 × 10^7 CFU/20 μL. To generate the skin infection, female CD-1 mice (6-weeks-old) were first anesthetized with isoflurane and their backs were shaved. Using a needle, a superficial linear abrasion was made on the shaved area of the mice to injure just the stratum corneum and the upper layer of the epidermis. An aliquot of 20 μL containing 1 × 10^7 CFU of A. baumannii was then inoculated over the wound area with a pipette tip. The next day, the infected area was treated with the peptides (i.e., VmCT1, temporin A, VT, and TV), which were administered onto the abscess at their MIC. The animals were euthanized, and the scarified skin area removed 2- and 4-days post-infection. The excised area was homogenized using a bead beater for 20 min (25 Hz) and serially diluted for CFU quantification. Eight mice were used per group (n = 8). All experiments were performed in accordance with protocol 806763 approved by the IACUC at the University of Pennsylvania.
# [4] = test system: MCF-7 human breast cancer cells; assay: MTT assay, anticancer activity; type: cell-based; conditions: 37 °C
# Protocol: The anticancer activity assays were performed using MCF-10A human breast epithelial cells and MCF-7 mammary cancer cells as previously described by Pedron et al.[78]. Briefly, the day before treatment, the cells were incubated at 37 °C and 5% CO2 for 24 h. The cells were treated with peptides ranging from 12.5 to 100 μmol L^−1 (MCF10-A cells) and 0.8 to 100 μmol L^−1 (MCF-7 cells) for 4 h and 24 h at 37 °C, and cell viability was measured using 3-(4,5-Dimethylthiazol-2-yl)-2,5-diphenyltetrazolium bromide (MTT) assays[79],[80]. Three independent replicates were performed in each case.
# [5] = LC peak area, time 0 = 100, 0.5 h, replicate 1
# [6] = LC peak area, time 0 = 100, 0.5 h, replicate 2
# [7] = LC peak area, time 0 = 100, 0.5 h, replicate 3
# [8] = LC peak area, time 0 = 100, 1 h, replicate 1
# [9] = LC peak area, time 0 = 100, 1 h, replicate 2
# [10] = LC peak area, time 0 = 100, 1 h, replicate 3
# [11] = LC peak area, time 0 = 100, 2 h, replicate 1
# [12] = LC peak area, time 0 = 100, 2 h, replicate 2
# [13] = LC peak area, time 0 = 100, 2 h, replicate 3
# [14] = LC peak area, time 0 = 100, 4 h, replicate 1
# [15] = LC peak area, time 0 = 100, 4 h, replicate 2
# [16] = LC peak area, time 0 = 100, 4 h, replicate 3
# [17] = LC peak area, time 0 = 100, 6 h, replicate 1
# [18] = LC peak area, time 0 = 100, 6 h, replicate 2
# [19] = LC peak area, time 0 = 100, 6 h, replicate 3
# [20] = day 0 = 100, Day 1, replicate 1
# [21] = day 0 = 100, Day 1, replicate 2
# [22] = day 0 = 100, Day 1, replicate 3
# [23] = day 0 = 100, Day 2, replicate 1
# [24] = day 0 = 100, Day 2, replicate 2
# [25] = day 0 = 100, Day 2, replicate 3
# [26] = day 0 = 100, Day 3, replicate 1
# [27] = day 0 = 100, Day 3, replicate 2
# [28] = day 0 = 100, Day 3, replicate 3
# [29] = day 0 = 100, Day 4, replicate 1
# [30] = day 0 = 100, Day 4, replicate 2
# [31] = day 0 = 100, Day 4, replicate 3
Substance,Hemolytic activity (concentration of peptide needed to kill 10% of red blood cells) (human erythrocytes) [µmol/L],"Peptide remaining [2, 5]","Peptide remaining [2, 6]","Peptide remaining [2, 7]","Peptide remaining [2, 8]","Peptide remaining [2, 9]","Peptide remaining [2, 10]","Peptide remaining [2, 11]","Peptide remaining [2, 12]","Peptide remaining [2, 13]","Peptide remaining [2, 14]","Peptide remaining [2, 15]","Peptide remaining [2, 16]","Peptide remaining [2, 17]","Peptide remaining [2, 18]","Peptide remaining [2, 19]","Mouse body weight, normalized to the weight at the beginning of the experiment [3, 20]","Mouse body weight, normalized to the weight at the beginning of the experiment [3, 21]","Mouse body weight, normalized to the weight at the beginning of the experiment [3, 22]","Mouse body weight, normalized to the weight at the beginning of the experiment [3, 23]",also measured
FLGTLWGGAKGVF-NH2 [VP],100,24.2,22.1,20.2,14.7,16.0,11.8,3.6,3.6,4.4,0.0,0.0,0.0,0.0,0.0,0.0,,,,,MIC against P. aeruginosa [1]: 128 µM
"FLPLIGRVLSGIL-NH2 [Temporin A, reference compound]",0.2,0,0,,0,0,0,0,0,0,0,0,0,0,0,0,95,105,100,95,"Mouse body weight, normalized to the weight at the beginning of the experiment [3, 24]: 100; Mouse body weight, normalized to the weight at the beginning of the experiment [3, 25]: 100; Mouse body weight, normalized to the weight at the beginning of the experiment [3, 26]: 95; Mouse body weight, normalized to the weight at the beginning of the experiment [3, 27]: 100; Mouse body weight, normalized to the weight at the beginning of the experiment [3, 28]: 95; Mouse body weight, normalized to the weight at the beginning of the experiment [3, 29]: 95; Mouse body weight, normalized to the weight at the beginning of the experiment [3, 30]: 100; Mouse body weight, normalized to the weight at the beginning of the experiment [3, 31]: 95; Peptide remaining after 30 min [2]: totally degraded; remaining at 0.5 h ([2]; fetal bovine serum, 25% in water, LC peak area, time 0 = 100, 0.5 h, replicate 3, read-out: Peptide remaining): 0%; MCF-7 4 h LD50 ([4]; 4 h of incubation): 50 µmol/L; MCF-7 24 h LD50 ([4]; 24 h of incubation): 50 µmol/L"
FLPLLWRVASGVF-NH2 [VT],0.2,0,0,0,,0,0,0,0,0,0,0,0,0,0,0,95,100,100,90,"Mouse body weight, normalized to the weight at the beginning of the experiment [3, 24]: 105; Mouse body weight, normalized to the weight at the beginning of the experiment [3, 25]: 100; Mouse body weight, normalized to the weight at the beginning of the experiment [3, 26]: 90; Mouse body weight, normalized to the weight at the beginning of the experiment [3, 27]: 100; Mouse body weight, normalized to the weight at the beginning of the experiment [3, 28]: 95; Mouse body weight, normalized to the weight at the beginning of the experiment [3, 29]: 95; Mouse body weight, normalized to the weight at the beginning of the experiment [3, 30]: 100; Mouse body weight, normalized to the weight at the beginning of the experiment [3, 31]: 95; Peptide remaining after 30 min [2]: totally degraded; remaining at 1 h ([2]; fetal bovine serum, 25% in water, LC peak area, time 0 = 100, 1 h, replicate 1, read-out: Peptide remaining): 0%"
